Laboratory results reported in ChEMBL document CHEMBL5104093, “A comprehensive review on β-lapachone: Mechanisms, structural modifications, and therapeutic potentials” (Eur J Med Chem, 2021).
Converted amounts (≈) assume the structure as drawn.

Assays:
[1] = system: MDA-MB-435; assay: Cytotoxicity against human MDA-MB-435 cells assessed as reduction in cell viability incubated for 72 hrs by MTT assay; format: functional, cell-based; settings: MDA-MB-435, 72 h
[2] = system: HCT-8; assay: Cytotoxicity against human HCT-8 cells assessed as reduction in cell viability incubated for 72 hrs by MTT assay; format: functional, cell-based; settings: HCT-8, 72 h
[3] = system: HL-60; assay: Cytotoxicity against human HL-60 cells assessed as reduction in cell viability incubated for 72 hrs by MTT assay; format: functional, cell-based; settings: HL-60, 72 h
[4] = system: SF-295; assay: Cytotoxicity against human SF-295 cells assessed as reduction in cell viability incubated for 72 hrs by MTT assay; format: functional, cell-based; settings: SF-295, 72 h
[5] = system: Trypanosoma cruzi; assay: Antitrypanosomal activity against bloodstream form of Trypanosoma cruzi trypomastigotes infected in Swiss mouse assessed as reduction in viable parasite in blood incubated for 24 hrs by Neubauer counting chamber method; format: functional, organism-based
[6] = system: Mycobacterium tuberculosis; assay: Antimycobacterial activity against Mycobacterium tuberculosis H37Rv ATCC 27294 assessed as bacterial growth inhibition incubated for 7 days by resazurin dye based microtiter assay; format: functional; settings: ATCC 27294, 168 h, time 7 day
[7] = system: Jurkat; assay: Cytotoxicity against human Jurkat cells assessed as reduction in cell viability incubated for 72 hrs by MTT assay; format: functional, cell-based
[8] = system: MOLT-4; assay: Cytotoxicity against human MOLT-4 cells assessed as reduction in cell viability incubated for 72 hrs by MTT assay; format: functional, cell-based; settings: MOLT-4, 72 h
[9] = system: K562; assay: Cytotoxicity against human K562 cells assessed as reduction in cell viability incubated for 72 hrs by MTT assay; format: functional, cell-based; settings: K562, 72 h
[10] = system: KB; assay: Cytotoxicity against human KB cells assessed as reduction in cell viability incubated for 48 hrs by MTT assay; format: functional, cell-based
[11] = system: HeLa; assay: Cytotoxicity against human HeLa cells assessed as reduction in cell viability incubated for 48 hrs by MTT assay; format: functional, cell-based
[12] = system: HepG2; assay: Cytotoxicity against human HepG2 cells assessed as reduction in cell viability incubated for 48 hrs by MTT assay; format: functional, cell-based; settings: HepG2, 48 h
[13] = system: Trypanosoma cruzi; assay: Antitrypanosomal activity against bloodstream form of Trypanosoma cruzi Y trypomastigotes infected in Swiss Webster mouse assessed as reduction in viable parasite in blood incubated for 24 hrs by Neubauer counting chamber based light microscopic analysis; format: functional, organism-based
[14] = system: Trypanosoma cruzi; assay: Antitrypanosomal activity against bloodstream form of Trypanosoma cruzi Y trypomastigotes infected in albino mouse assessed as reduction in viable parasite in blood by Neubauer counting chamber method; format: functional, organism-based
[15] = system: Staphylococcus aureus; assay: Antibacterial activity against Staphylococcus aureus 2065 MA assessed as diameter of bacterial growth inhibition by Mueller-Hinton broth based assay; format: functional
[16] = Cytotoxicity against monkey LLC-MK2 cells assessed as reduction in cell viability incubated for 96 hrs by trypan blue assay; format: toxicity, cell-based, Macaca mulatta; settings: rhesus monkey, read-out: LC50
[17] = system: OVCAR-8; assay: Cytotoxicity against human OVCAR-8 cells assessed as reduction in cell viability by MTT assay; format: functional, cell-based
[18] = system: SF-295; assay: Cytotoxicity against human SF-295 cells assessed as reduction in cell viability by MTT assay; format: functional, cell-based
[19] = system: HCT-116; assay: Cytotoxicity against human HCT-116 cells assessed as reduction in cell viability by MTT assay; format: functional, cell-based
[20] = system: Trypanosoma cruzi; assay: Antitrypanosomal activity against bloodstream form of Trypanosoma cruzi Y trypomastigotes infected in albino mouse assessed as reduction in viable parasite in blood incubated for 24 hrs by Neubauer counting chamber method; format: functional, organism-based
[21] = system: MCF7; assay: Cytotoxicity against human MCF7 cells assessed as reduction in cell viability incubated for 72 hrs by MTT assay; format: functional, cell-based; settings: MCF7, 72 h
[22] = system: HEp-2; assay: Cytotoxicity against human HEp-2 cells assessed as reduction in cell viability incubated for 72 hrs by MTT assay; format: functional, cell-based; settings: HEp-2, 72 h
[23] = system: NCI-H292; assay: Cytotoxicity against human NCI-H292 cells assessed as reduction in cell viability incubated for 72 hrs by MTT assay; format: functional, cell-based; settings: NCI-H292, 72 h

O=C1C(=O)c2c(O)cccc2C2=C1CCC(c1ccc(Cl)cc1)O2 (stereo not drawn)
IC50 [1]: 0.15 µM
IC50 [2]: 0.17 µM
IC50 [3]: 0.17 µM
IC50 [4]: 0.17 µM

CC1(C)CCc2c(c3ccccc3c3nc(-c4ccccc4Cl)[nH]c23)O1
IC50 [5]: 37.5 µM

CC1(C)OC2=C(C(=O)C(=O)c3ccccc32)[C@H](n2cc(-c3ccc(F)cc3)nn2)[C@H]1Br
MIC [6]: < 6.25 µg/mL

CC1(C)OC2=C(C(=O)C(=O)c3ccccc32)C1n1cc(-c2ccc(F)cc2)nn1 (stereo not drawn)
IC50 [7]: 1.33 µM
IC50 [3]: 1.33 µM
IC50 [8]: 1.33 µM
IC50 [9]: 1.33 µM

O=C1C(=O)c2c(O)cccc2C2=C1CCC(c1ccc(Br)cc1)O2 (stereo not drawn)
IC50 [1]: 0.15 µM
IC50 [2]: 0.15 µM
IC50 [3]: 0.15 µM
IC50 [4]: 0.15 µM

CC1(C)CCc2c(c3ccccc3c3nc(-c4ccccc4)[nH]c23)O1
IC50 [5]: 37.5 µM

O=C1C(=O)c2ccccc2C2=C1CC(O)CO2 (stereo not drawn)
IC50 [10]: 7.61 µM
IC50 [11]: 7.61 µM
IC50 [12]: 7.61 µM

CC1(C)CCc2c(c3ccccc3c3nc(-c4ccc(Br)cc4)[nH]c23)O1
IC50 [5]: 37.5 µM

CC1(C)OC2=C(CC1[Se]c1cccc(C(F)(F)F)c1)C(=O)C(=O)c1ccccc12 (stereo not drawn)
IC50 [13]: 54.9 µM
IC50 [14]: 54.9 µM

CC(=O)OC[C@H]1O[C@@H](OCc2cn(C3C4=C(OC3(C)C)c3ccccc3C(=O)C4=O)nn2)[C@H](OC(C)=O)[C@@H](OC(C)=O)[C@H]1OC(C)=O (stereo partly drawn)
IC50 [14]: 209 µM

COc1ccccc1-c1nc2c([nH]1)c1c(c3ccccc32)OC(C)(C)CC1
MIC [6]: 1.56 µg/mL (≈ 4.35 µM)

CC1COC2=C(C1)C(=O)C(=O)c1ccccc12 (stereo not drawn)
IC50 [10]: 0.92 µM
IC50 [11]: 0.92 µM
IC50 [12]: 0.92 µM

CC1(C)OC2=C(C(=O)C(=O)c3ccccc32)C1S(=O)(=O)C1CCCCC1 (stereo not drawn)
zone diameter [15]: 8 mm

CC1(C)CCc2c(c3ccccc3c3nc(-c4cccc(Br)c4)[nH]c23)O1
MIC [6]: 1.56 µg/mL (≈ 3.83 µM)

COc1ccc(-c2cn(C3C4=C(OC3(C)C)c3ccccc3C(=O)C4=O)nn2)cc1 (stereo not drawn)
IC50 [7]: 0.94 µM
IC50 [3]: 0.94 µM
IC50 [8]: 0.94 µM
IC50 [9]: 0.94 µM

O=C(Cn1ccnc1[N+](=O)[O-])NCc1ccccc1 [BENZNIDAZOLE]
CC50 at 96 h [16]: 324 µM
IC50 [13]: 104 µM

CC1(C)O[C@H]2O[C@H](COC3C4=C(OC3(C)C)c3ccccc3C(=O)C4=O)[C@@H](OCc3ccccc3)[C@H]2O1 (stereo partly drawn)
IC50 [17]: 0.16 µM
IC50 [18]: 0.16 µM
IC50 [19]: 0.16 µM

CC1(C)CCc2c(c3ccccc3c3nc(-c4ccc(F)cc4)[nH]c23)O1
IC50 [5]: 37.5 µM

Cc1ccc(-c2nc3c([nH]2)c2c(c4ccccc43)OC(C)(C)CC2)cc1
MIC [6]: 3.12 µg/mL (≈ 9.11 µM)

CC1(C)COC2=C(C1)C(=O)C(=O)c1ccccc12 [RHINACANTHONE]
IC50 [10]: 6.9 µM
IC50 [11]: 6.9 µM
IC50 [12]: 6.9 µM

COc1ccc(/C=C/C(=O)c2ccc(NC3C4=C(OC3(C)C)c3ccccc3C(=O)C4=O)cc2)cc1 (stereo not drawn)
IC50 [14]: 230 µM

CCCCCCCCCCC1CC2=C(O1)c1ccccc1C(=O)C2=O (stereo not drawn)
CC50 at 96 h [16]: 1700 µM

CC1CCC2C(C1)c1c(c3ccccc3c3nc4ccccc4nc13)OC2(C)C (stereo not drawn)
MIC [6]: < 6.25 µg/mL

CC1(C)OC2=C(C(=O)C(=O)c3ccccc32)C1Sc1c(F)c(F)c(F)c(F)c1F (stereo not drawn)
zone diameter [15]: 10 mm

CC1(C)CCc2c(c3ccccc3c3nc(-c4cccc(F)c4)[nH]c23)O1
MIC [6]: 1.56 µg/mL (≈ 4.5 µM)

COc1ccc(-c2nc3c(o2)c2c(c4ccccc43)OC(C)(C)CC2)cc1
IC50 [20]: 3500 µM

CC1(C)OC2=C(C(=O)C(=O)c3ccccc32)C1n1cc(-c2ccc([N+](=O)[O-])cc2)nn1 (stereo not drawn)
IC50 [7]: 0.74 µM
IC50 [3]: 0.74 µM
IC50 [8]: 0.74 µM
IC50 [9]: 0.74 µM

CCCC[Se]C1CC2=C(OC1(C)C)c1ccccc1C(=O)C2=O (stereo not drawn)
IC50 [13]: 109 µM

CCOC(=O)C1=C2C3=C(OC(C)(C)CC3)c3ccccc3C2(O)CC1=O (stereo not drawn)
IC50 [20]: 56.1 µM

CC1(C)OC2=C(CC1CO)C(=O)C(=O)c1ccccc12 (stereo not drawn)
IC50 [21]: 5.51 µM
IC50 [22]: 5.51 µM
IC50 [23]: 5.51 µM

O=C1C(=O)c2ccccc2C2=C1CC(Cn1cc(COC3CCCCO3)nn1)O2 (stereo not drawn)
IC50 [14]: 52.9 µM
